Assay: gradient 5% acetonitrile 3 min, to 50% in 2 min, to 85% in 15 min, held 3 min, 100 µL/min
Conditions: column: Zorbax Extend-C18 2.1 x 50 mm; eluents: water / acetonitrile, 0.1% formic acid
Summary of the method: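 Standards, all pure, were combined into mixtures of ~100 molecules and run at 100 μL/min on a Zorbax Extend-C18 column (2.1 × 50 mm, 1.8 μm) with water and acetonitrile, each containing 0.1% formic acid. A coupled quadrupole time-of-flight mass spectrometer operated in positive and negative ionization mode. Retention time values come from computationally picked adduct peaks, each inspected manually.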

Compound	RP-LC retention time [s]
CO[C@H]1C(=O)N(C(C)C)[C@H]1C1CCN(S(=O)(=O)Cc2ccccc2F)CC1	831
O=C(OCc1ccncc1)c1cn(-c2ccc(F)cc2)c(=O)c2ccccc12	703
Cc1cccc(N(C)C(=O)Cc2c(C(=O)O)c(C)cn2C)c1	739
Cc1ccc(CN2CCN(CC(C)C(=O)NCc3cc(F)ccc3F)C(=O)C2=O)cc1 (stereo not given)	765
O=C(NCCCN1CCOCC1)C1CCCN(c2ncc(-c3cccc(F)c3)cn2)C1 (stereo not given)	653
Cc1oc(C2CCN(S(=O)(=O)c3ccc(Cl)cc3)CC2)nc1C(=O)N1CCCC1	977
COC(=O)[C@@H]1Cc2c([nH]c3ccccc23)C(CCc2ccccc2)N1C(C)=O (stereo not given in full)	983
Cc1[nH]c(C(=O)N2CCCC(C(=O)NCc3cccc(Cl)c3)C2)c(C)c1C(=O)OC(C)C (stereo not given)	885
CCc1nc2ccc(-c3noc(C(C)NC(=O)c4ccco4)n3)cc2n1CC (stereo not given)	621
CC(C)CCN1CCC(C2CCN(C(=O)c3ccncc3)C2)CC1 (stereo not given)	556
COc1ccc(S(=O)(=O)N2CCC(n3cnnc3C)CC2)cc1Cl	694
CN(C)CCN1C(=O)c2cccc3cc(N)cc(c23)C1=O	626
Cc1ccc(-c2cc3c(=O)n(Cc4nc(-c5ccc(F)cc5)no4)ncn3n2)c(C)c1	1220
CCOC(=O)c1ccc(NC(=O)c2sccc2S(=O)(=O)N(C)c2ccc(OCC)cc2)cc1	1230
Cc1ccc(CNC(=O)C2CCCN(S(=O)(=O)c3cc(-c4noc(C)n4)cs3)C2)o1 (stereo not given)	864
Cc1cccc2c(C(=O)NC3CC3)cc(N(C)C)nc12	588
Cc1cc(C)cc(-c2nnc(Cc3nc(-c4ccc(F)cc4)no3)o2)c1	1120
Cc1oc(-c2ccc(NC(=O)c3cccs3)cc2)nc1Cn1cccn1	836
O=C(Cn1ncc2c(N3CCN(c4ccccn4)CC3)ncnc21)Nc1ccc(F)c(Cl)c1	650
Cc1ccc(CNC(=O)c2cc3c(s2)CCN(C(=O)c2ccccc2)C3)o1	881

Compound	RP-LC retention time [s]
Cc1nnc2ccc(-c3noc(Cc4cccc(F)c4)n3)cn12	787
CCc1cccc(C)c1Nc1c(-c2ccc(C)cc2)nc2nc(C)cc(C)n12	880
Cc1ccc(Nc2ccc(NC(=O)C3CCCC3)cc2)nn1	566
CC1(C)CC(=O)c2cn(-c3ccc(F)cc3)c(=O)c(C(=O)N3CCN(c4ccccn4)CC3)c2C1	636
O=C(NCCN1CCOCC1)c1nc2ccccn2c1-c1ccc(F)cc1	616
CC(C)n1c(CCNC(=O)CCc2ccccc2)nc2cccnc21	716
CCc1ccc(C(=O)N2CCC3(C2)C(=O)Nc2ccccc23)cc1 (stereo not given)	769
CCOC(=O)C(=O)NCc1ccccc1Cl	735
O=C(NC1CCCC1)C1CCCN(c2ccc3cc(S(=O)(=O)N4CCCCC4)ccc3n2)C1 (stereo not given)	781
COc1cccc(CNC(=O)C2CCCN2S(=O)(=O)c2cc3c(cc2C)NC(=O)CO3)c1 (stereo not given)	721
O=C(CN1CCN(C(=O)Nc2ccc(Cl)cc2)CC1=O)NC1CCCC1	690
COCCNC(=O)c1ccc(-n2nc(C)c3c2CCCC3=O)cc1	633
Cc1ncsc1CN1CC(Cn2c(C)cnc2-c2ccncc2)C1	818
CCc1ccc(S(=O)(=O)NCC2CCN(C(=O)Nc3ccccc3OC)CC2)s1	878
CCOc1ccc(-n2ccn3cc(-c4ccc(F)cc4F)nc3c2=O)cc1	916
COC1CCC12CCN(C(=O)c1conc1C)CC2 (stereo not given)	679
CC1C(=O)NCCN1C(=O)c1ccc(Oc2ccccc2)cc1 (stereo not given)	670
CCN1CCN(CCNC(=O)c2cc3n(n2)CCCN(Cc2ccc(F)cc2)C3=O)CC1	593
Cc1ccc(C)c2sc(N(C)CC(=O)NCCSc3nncn3C)nc12	719

Continued, values first:

RP-LC retention time [s]	Compound
1070	CCc1ccc(-c2ccc(-n3nc(C)c(S(=O)(=O)N4CCOCC4)c3C)nn2)cc1
688	COc1cccc(-c2cc(N3CCN(C(=O)Nc4cc(OC)ccc4OC)CC3)ncn2)c1
990	Cc1nc(-c2ccc3c(c2)CCN3C(=O)Cc2ccc(F)cc2)cs1
734	O=C(NCC1CCOCC1)Nc1ccccc1C(F)(F)F
770	C[C@H]1CN(C(=O)Nc2ccc(F)cc2F)C[C@@H]1c1nc(-c2cccnc2)no1
980	Cc1ccc(N2C(=O)CN(S(C)(=O)=O)CC2(C)C(=O)NC2CCCCCCC2)cc1Cl (stereo not given)
1030	COc1ccc(-c2csc3c(=O)n(Cc4cccc(OC)c4)cnc23)cc1
842	Cc1cc(C)cc(NC(=O)N2CCC3(CC2)NC(=O)c2ccccc2O3)c1
857	Cc1ccc(CNC(=O)Cn2c(=O)cc(-c3nc(C)no3)c3ccccc32)cc1
613	COc1ccc(-c2nc(C)cc(C)c2CNC(=O)C(C)(C)C)cc1
1160	COC1CCC12CCN(S(=O)(=O)c1ccc(C)c(Cl)c1)CC2 (stereo not given)
810	COC(=O)CCc1sc(Nc2ccccn2)nc1-c1ccc(OC)cc1
879	CCn1cc(-c2ccc(Cl)cc2)cc1C(=O)NCCCN1CCCC1=O
679	O=C(NCc1ccc2c(c1)OCO2)c1ccc2ccnc(N3CCN(C(=O)c4ccco4)CC3)c2c1
880	Cc1ccc2nc(-c3cccc(F)c3)cc(C(N)=O)c2c1
591	Cn1cccc(C(=O)NCCn2nc(-c3cccs3)ccc2=O)c1=O
720	COc1ccccc1N1CCN(C(=O)Cn2cnc3onc(C)c3c2=O)CC1
866	COc1cccc(NC(=O)Cn2nc3c(Oc4ccccc4C)nccn3c2=O)c1
792	O=c1n(CCOc2ccccc2)nc2ccc(S(=O)(=O)N3CCOCC3)cn12
690	CCNC(=O)c1[nH]c2ccc(C)cc2c1N1CCCC1=O
696	CN(CC1CCOCC1)C(=O)Nc1cc(F)ccc1F
595	O=C(CCc1cc2ccccc2[nH]c1=O)NCCN1CCCCCC1
722	CCOC(=O)c1c(C)[nH]c(C(=O)N2CCCC(C(=O)NCc3ccco3)C2)c1C (stereo not given)
645	CCOCC(=O)Nc1ccc(-c2ccc(S(C)(=O)=O)nn2)cc1
780	Cc1ccccc1NC(=O)N1C[C@@H](F)C[C@H]1C(=O)N1CCc2ccccc2C1
1010	Cc1ccc(C)c(N2CCN(c3ccnc(SCC(=O)Nc4c(C)cccc4C)n3)CC2)c1

RP-LC retention time [s]	Compound
605	Cc1ccccc1-c1nc2cnccn2c1NCCC(=O)NC(C)C
738	O=c1ccc(N2CCC(NS(=O)(=O)c3cccnc3)C2)nn1CCOc1ccccc1 (stereo not given)
589	CCCCN(CC(=O)N1CCNCC1)C(=O)c1ccc(Br)cc1
974	O=C(CN1C(=O)CCCc2cc(S(=O)(=O)N3CCCCCC3)ccc21)N1CCc2ccccc2C1
603	NS(=O)(=O)c1ccc(CCNC(=O)c2coc(NC(=O)c3cccs3)n2)cc1
779	COCCc1noc(-c2cnc3nc(C)ccc3c2Nc2ccccc2Cl)n1
872	CCc1noc(NC(C)=O)c1-c1ccc(C)c(S(=O)(=O)Nc2cc(Cl)ccc2OC)c1
888	CCc1nnc(-c2cn(CC(=O)Nc3ccc(F)c(F)c3)c3ccccc23)o1
612	CC(NC(=O)c1cn2c(n1)CCCC2)c1ccc(F)cc1 (stereo not given)
1200	O=c1c2sccc2n(Cc2nc(-c3ccc(Br)cc3)no2)c(=O)n1Cc1ccccc1
658	CCOc1ccc(CN2C[C@@H]3C(=O)N(Cc4ccc5c(c4)OCO5)C(=O)[C@@H]3C2)cc1
676	Cc1noc(C)c1-c1ccc(S(=O)(=O)N2CCN(c3ccccn3)CC2)cc1
1140	CC1OC1c1ccc(-c2ccc(C3OC3C)cc2)cc1 (stereo not given)
635	O=C(CN(C(=O)c1ccc(F)c(F)c1)C1CCCCC1)N1CCNCC1
622	Cc1cn(C)nc1C(=O)Nc1nnc(-c2ccco2)o1
743	CCOC(=O)c1[nH]c(C)c(CCC(=O)N2CCC(C(=O)NCCc3ccco3)CC2)c1C
752	COCCc1nncn1C1CCN(S(=O)(=O)c2cccc(C(F)(F)F)c2)CC1
898	COc1ccccc1CNc1ncc(C(=O)O)c(C(C)C)n1
925	Cc1ccc(Cn2nc3c(S(=O)(=O)N4CCCCC4)cccn3c2=O)cc1
661	COc1ccc(C2(C(=O)N3CCC(n4c(C)cnc4-c4ccccc4)C3)CC2)cc1 (stereo not given)
577	Cc1cc(NC(=O)c2ncccn2)no1
657	CNc1ncnc2c1cnn2-c1ccc(F)cc1
614	Cc1ccc(CN2CCN(CC(=O)NC3CCN(Cc4ccccc4)CC3)C(=O)C2=O)cc1
1210	Cc1ccc(-c2csc(NC(=O)CCc3nc(CSc4nc5cc(C)ccc5o4)no3)n2)cc1
900	COc1ccc(NC(=O)c2cnc3c(c2)c(=O)n(C)c(=O)n3-c2ccc(C)cc2)cc1

Reference: the METLIN SMRT retention time set (Domingo-Almenara et al. 2019)
